Some test systems named below: SK-MEL-5; MOLT-4; CCRF-CEM; 786-0; SK-MEL-2; K562; HCT-116; OVCAR-3; HOP-92; Malme-3M; SW-620; ACHN; SNB-19; UACC-257; TK-10; HCC 2998; NCI/ADR-RES; U-251; NCI-H522; NCI-H23.
What all share (assay): DTP human tumour cell line panel, 48 h

Data on eight compounds can be found in ChEMBL document CHEMBL1201862, “PubChem BioAssay data set” (2004).

SMILES strings stand for the structures.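 Cultured in 96-well plates, cells were exposed to test compound for 48 hours across five concentrations. GI50 marks 50% less growth.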 The source made the active and inactive calls. Rule as the data show it: active = GI50 up to about 1.1 µM and inactive = higher.

One may read the GI50 as the concentration giving 50% growth inhibition. Turning to `CC(NNC(=O)c1cc[n+]([BH2-]C#N)cc1)c1ccc(Cl)cc1Cl` (stereo not given), the GI50 with SK-MEL-5 is 23 µM (inactive); in the experiment with MOLT-4 it was 17.5 µM (inactive); in the experiment on CCRF-CEM, 33.3 µM (inactive); in the experiment on 786-0 it was 49.1 µM (inactive); in the experiment on SK-MEL-2, 49.5 µM (inactive); in the experiment on K562, 24.2 µM (inactive). The GI50 in the experiment with HCT-116 is 22.5 µM (inactive); with OVCAR-3, 25 µM (inactive); with HOP-92 it was 37.4 µM (inactive); in the experiment with Malme-3M, 43.9 µM (inactive); with SW-620 it was 42.8 µM (inactive); in the experiment with ACHN, 42.7 µM (inactive). Further, the GI50 in the experiment with SNB-19 is 41.4 µM (inactive); with UACC-257 it was 42.1 µM (inactive); in the experiment on TK-10 it was 48.6 µM (inactive); in the experiment on HCC 2998 it was 57.1 µM (inactive); with NCI/ADR-RES, 31.6 µM (inactive); in the experiment on U-251, 48.2 µM (inactive). Moreover, the GI50 in the experiment on NCI-H522 is 28.6 µM (inactive).

For `CC1(C)N=C(N)N=C(N)N1c1ccc(CCc2ccccc2)cc1`, the GI50 was 0.741 µM (active) in the experiment on SK-MEL-5; 3.61 µM (inactive) in the experiment with MOLT-4; 1.91 µM (inactive) with CCRF-CEM; 8.85 µM (inactive) in the experiment with SK-MEL-2; 2.23 µM (inactive) in the experiment with K562; 0.619 µM (active) in the experiment with HCT-116. Further, the GI50 in the experiment on OVCAR-3 is 1.79 µM (inactive); in the experiment with HOP-92, 22.1 µM (inactive); in the experiment on Malme-3M, 2.2 µM (inactive); with SW-620 it was 0.301 µM (active); in the experiment on SNB-19, 1.14 µM (inactive); in the experiment on UACC-257, 2.96 µM (inactive). Further, the GI50 with NCI-H23 is 1.43 µM (inactive); with HCC 2998, 2.14 µM (inactive); in the experiment on NCI/ADR-RES it was > 100 µM (inactive); in the experiment with U-251, 0.435 µM (active); with NCI-H522 it was 3.03 µM (inactive).

`CC1CC(C)(O)C2C3(C)CCCC2(COC3=O)C12CCC1(CCOC1=O)O2` (stereo not given): the GI50 with SK-MEL-5, with MOLT-4, in the experiment with CCRF-CEM, in the experiment on SK-MEL-2, in the experiment with K562 and in the experiment with HCT-116 was > 250 µM (inactive) in each case. For the same compound, the GI50 in the experiment on OVCAR-3, with HOP-92, in the experiment on Malme-3M, in the experiment with SW-620, in the experiment on SNB-19 and in the experiment on UACC-257 was > 250 µM (inactive) throughout. Moreover, the GI50 in the experiment on NCI-H23, in the experiment on HCC 2998, in the experiment on NCI/ADR-RES, in the experiment with U-251 and in the experiment with NCI-H522 was > 250 µM (inactive) throughout.

Regarding `OC[P+](CO)(CO)C12CC3CC(CC(C3)C1)C2`, the GI50 is > 100 µM (inactive) in the experiment on SK-MEL-5; 26.4 µM (inactive) in the experiment on MOLT-4; 4.9 µM (inactive) with CCRF-CEM; > 100 µM (inactive) with SK-MEL-2; 24.5 µM (inactive) in the experiment with K562; > 87.3 µM (inactive) in the experiment with HCT-116. In addition, the GI50 is > 87.9 µM (inactive) in the experiment on OVCAR-3; > 86.9 µM (inactive) with HOP-92; > 100 µM (inactive) in the experiment with Malme-3M; > 100 µM (inactive) in the experiment on SW-620; > 100 µM (inactive) in the experiment with ACHN; 87.1 µM (inactive) in the experiment on SNB-19. Further, the GI50 with UACC-257 was > 100 µM (inactive); with NCI-H23 it was > 88.3 µM (inactive); with TK-10, > 100 µM (inactive); with HCC 2998, > 100 µM (inactive); in the experiment on NCI/ADR-RES, > 100 µM (inactive); in the experiment on U-251 it was > 100 µM (inactive). The GI50 with NCI-H522 was > 70.8 µM (inactive).

Take `C=CC1=C(C)c2cc3[nH]c(c4c5nc(cc6[nH]c(cc1n2)c(C)c6CC)C=C5C(=O)C4C(=O)OC)C(CCC(=O)OC/C=C(\C)CCCC(C)CCCC(C)CCCC(C)C)C3C.C=CC1=C(C)c2cc3[nH]c(c4c5nc(cc6[nH]c(cc1n2)c(C=O)c6CC)C=C5C(=O)C4C(=O)OC)C(CCC(=O)OC/C=C(\C)CCCC(C)CCCC(C)CCCC(C)C)C3C` (stereo not given): the GI50 is > 100 µM (inactive) with SK-MEL-5; > 100 µM (inactive) with MOLT-4; 10 µM (inactive) in the experiment on CCRF-CEM; > 100 µM (inactive) with 786-0; > 100 µM (inactive) in the experiment on SK-MEL-2; > 100 µM (inactive) in the experiment with K562. Besides, the GI50 in the experiment on HCT-116, in the experiment with OVCAR-3, with HOP-92, in the experiment with SW-620, in the experiment on ACHN and in the experiment with SNB-19 was > 100 µM (inactive) each time. Also, the GI50 with UACC-257, in the experiment with NCI-H23, with TK-10, with HCC 2998, with NCI/ADR-RES and in the experiment on U-251 was > 100 µM (inactive) throughout. In addition, the GI50 in the experiment with NCI-H522 is 22.6 µM (inactive).

Turning to `CN(C)N1C(=O)S/C(=C\c2ccc([N+](=O)[O-])cc2)C1=O`, the GI50 with SK-MEL-5 was > 100 µM (inactive); in the experiment with MOLT-4, > 100 µM (inactive); with CCRF-CEM, 55.2 µM (inactive); in the experiment with 786-0 it was > 100 µM (inactive); in the experiment with SK-MEL-2 it was > 100 µM (inactive); in the experiment on HCT-116 it was > 100 µM (inactive). Moreover, the GI50 in the experiment on OVCAR-3, in the experiment on HOP-92, in the experiment with Malme-3M, in the experiment with ACHN, in the experiment on UACC-257 and with NCI-H23 was > 100 µM (inactive) throughout. For the same compound, the GI50 with TK-10 is > 100 µM (inactive); in the experiment on HCC 2998, > 100 µM (inactive); in the experiment with NCI/ADR-RES it was > 100 µM (inactive); with U-251 it was 51.5 µM (inactive); in the experiment on NCI-H522, > 100 µM (inactive).

With `O=c1cc(N2CCCC2)[nH]c(=O)n1-c1ccccc1`, the GI50 in the experiment with SK-MEL-5, in the experiment on MOLT-4, in the experiment on CCRF-CEM, with 786-0, in the experiment on SK-MEL-2 and with K562 was > 100 µM (inactive) each time. Besides, the GI50 in the experiment on HCT-116, in the experiment with HOP-92, in the experiment with Malme-3M, in the experiment on SW-620, in the experiment on ACHN and with SNB-19 was > 100 µM (inactive) each time. In addition, the GI50 in the experiment on UACC-257 was > 100 µM (inactive); in the experiment on NCI-H23 it was > 100 µM (inactive); in the experiment with TK-10 it was > 100 µM (inactive); in the experiment with HCC 2998, 37 µM (inactive); in the experiment on NCI/ADR-RES, > 100 µM (inactive); with U-251 it was > 100 µM (inactive). The GI50 in the experiment with NCI-H522 is > 100 µM (inactive).

For the compound `CCOC(=O)CNC(=O)C(CSCc1ccc(Br)cc1)NC(=O)CCC(N)C(=O)OCC` (stereo not given), the GI50 with SK-MEL-5, with MOLT-4, with CCRF-CEM, with 786-0, in the experiment with SK-MEL-2 and in the experiment on K562 was > 50 µM (inactive) throughout. In addition, the GI50 in the experiment with HCT-116, in the experiment with OVCAR-3, in the experiment with HOP-92, in the experiment with SW-620, with ACHN and with SNB-19 was > 50 µM (inactive) in each case. Further, the GI50 with UACC-257, with NCI-H23, in the experiment on HCC 2998, in the experiment with NCI/ADR-RES, in the experiment on U-251 and with NCI-H522 was > 50 µM (inactive) in each case.
